Values after ≈ are worked out from the molar mass of the structure shown.
Experiments:
Acinetobacter baumannii = experiment: Antibacterial activity against Acinetobacter baumannii assessed as bacterial growth inhibition; assay type: functional
Staphylococcus aureus [1] = experiment: Antibacterial activity against methicillin-resistant Staphylococcus aureus USA300 assessed as bacterial growth inhibition; assay type: functional
Staphylococcus aureus [2] = experiment: Potency index, ratio of Vancomycin MIC to test compound MIC for antibacterial activity against vancomycin-intermediate Staphylococcus aureus Mu50 assessed as bacterial growth inhibition; assay type: functional
Enterococcus faecium [3] = experiment: Antibacterial activity against vancomycin resistant Enterococcus faecium Van B V(R) assessed as inhibition of bacterial growth; assay type: functional
Enterococcus faecium [4] = experiment: Potency index, ratio of Vancomycin MIC to test compound MIC for antibacterial activity against vancomycin resistant Enterococcus faecium Van M HS-0847 assessed as inhibition of bacterial growth; assay type: functional
Escherichia coli = experiment: Antibacterial activity against Escherichia coli AB1157 assessed as bacterial growth inhibition; assay type: functional
Enterococcus faecium [5] = experiment: Antibacterial activity against vancomycin resistant Enterococcus faecium Van A HS-0649 assessed as inhibition of bacterial growth; assay type: functional
Enterococcus faecium [6] = experiment: Potency index, ratio of Vancomycin MIC to test compound MIC for antibacterial activity against vancomycin resistant Enterococcus faecium Van M HS-08267 assessed as inhibition of bacterial growth; assay type: functional
Enterococcus faecium [7] = experiment: Potency index, ratio of Vancomycin MIC to test compound MIC for antibacterial activity against vancomycin resistant Enterococcus faecium Van B V(R) assessed as inhibition of bacterial growth; assay type: functional
Enterococcus faecium [8] = experiment: Antibacterial activity against vancomycin resistant Enterococcus faecium Van M HS-0847 assessed as inhibition of bacterial growth; assay type: functional
Enterococcus faecium [9] = experiment: Potency index, ratio of Vancomycin MIC to test compound MIC for antibacterial activity against vancomycin resistant Enterococcus faecium Van A HS-06188 assessed as inhibition of bacterial growth; assay type: functional
Staphylococcus aureus [10] = experiment: Potency index, ratio of Vancomycin MIC to test compound MIC for antibacterial activity against methicillin-susceptible Staphylococcus aureus Newman assessed as bacterial growth inhibition; assay type: functional
Staphylococcus aureus [11] = experiment: Antibacterial activity against methicillin-resistant Staphylococcus aureus HS-663 assessed as bacterial growth inhibition; assay type: functional
Enterococcus faecium [12] = experiment: Antibacterial activity against vancomycin resistant Enterococcus faecium Van A HS-06188 assessed as inhibition of bacterial growth; assay type: functional
Staphylococcus aureus [13] = experiment: Antibacterial activity against methicillin-susceptible Staphylococcus aureus Newman assessed as bacterial growth inhibition; assay type: functional
Enterococcus faecium [14] = experiment: Antibacterial activity against vancomycin resistant Enterococcus faecium Van M HS-08267 assessed as inhibition of bacterial growth; assay type: functional
Staphylococcus aureus [15] = experiment: Antibacterial activity against vancomycin-intermediate Staphylococcus aureus Mu50 assessed as bacterial growth inhibition; assay type: functional
HEK-293T = experiment: Cytotoxicity against human HEK293T cells assessed as reduction in cell viability upto 25 uM; assay type: cell-based
L02 = experiment: Cytotoxicity against human L02 cells assessed as reduction in cell viability < 6.25 uM; assay type: cell-based

Row | SMILES | MIC (Acinetobacter baumannii) [µg/mL] | MIC (Staphylococcus aureus [1]) [µg/mL] | Ratio (Staphylococcus aureus [2]) | MIC (Enterococcus faecium [3]) [µg/mL] | Ratio (Enterococcus faecium [4]) | MIC (Escherichia coli) [µg/mL] | MIC (Enterococcus faecium [5]) [µg/mL] | Ratio (Enterococcus faecium [6]) | Ratio (Enterococcus faecium [7]) | MIC (Enterococcus faecium [8]) [µg/mL] | Ratio (Enterococcus faecium [9]) | Ratio (Staphylococcus aureus [10]) | MIC (Staphylococcus aureus [11]) [µg/mL] | MIC (Enterococcus faecium [12]) [µg/mL] | MIC (Staphylococcus aureus [13]) [µg/mL] | MIC (Enterococcus faecium [14]) [µg/mL] | MIC (Staphylococcus aureus [15]) [µg/mL] | Activity (HEK-293T) | Activity (L02)
1 | CN[C@H](CC(C)C)C(=O)N[C@H]1C(=O)N[C@@H](CC(N)=O)C(=O)N[C@H]2C(=O)N[C@H]3C(=O)N[C@H](C(=O)N[C@H](C(=O)NNCc4ccc(-c5ccccc5)cc4)c4cc(O)cc(O)c4-c4cc3ccc4O)[C@H](O)c3ccc(c(Cl)c3)Oc3cc2cc(c3O[C@@H]2O[C@H](CO)[C@@H](O)[C@H](O)[C@H]2O[C@H]2C[C@](C)(N)[C@H](O)[C@H](C)O2)Oc2ccc(cc2Cl)[C@H]1O | 64 (≈ 39.3 µM) | 0.5 (≈ 0.307 µM) | 2 | 4 (≈ 2.45 µM) | 8 | 64 (≈ 39.3 µM) | 8 (≈ 4.91 µM) | 8 | 8 | 8 (≈ 4.91 µM) | 8 | 32 | < 0.0625 | 8 (≈ 4.91 µM) | ≤ 0.0625 | 4 (≈ 2.45 µM) | 1 (≈ 0.614 µM) | – | –
2 | CN[C@H](CC(C)C)C(=O)N[C@H]1C(=O)N[C@@H](CC(N)=O)C(=O)N[C@H]2C(=O)N[C@H]3C(=O)N[C@H](C(=O)N[C@H](C(=O)N/N=C/c4ccc(-c5ccc(Cl)cc5)cc4)c4cc(O)cc(O)c4-c4cc3ccc4O)[C@H](O)c3ccc(c(Cl)c3)Oc3cc2cc(c3O[C@@H]2O[C@H](CO)[C@@H](O)[C@H](O)[C@H]2O[C@H]2C[C@](C)(N)[C@H](O)[C@H](C)O2)Oc2ccc(cc2Cl)[C@H]1O | > 128 | 0.5 (≈ 0.301 µM) | 2 | 8 (≈ 4.81 µM) | 8 | 128 (≈ 77 µM) | 4 (≈ 2.41 µM) | 8 | 8 | 4 (≈ 2.41 µM) | 8 | 4 | 0.0625 (≈ 0.0376 µM) | 16 (≈ 9.63 µM) | 0.5 (≈ 0.301 µM) | 4 (≈ 2.41 µM) | 2 (≈ 1.2 µM) | – | –
3 | CN[C@H](CC(C)C)C(=O)N[C@H]1C(=O)N[C@@H](CC(N)=O)C(=O)N[C@H]2C(=O)N[C@H]3C(=O)N[C@H](C(=O)N[C@H](C(=O)NNCc4ccc(-c5ccc(Cl)cc5)cc4)c4cc(O)cc(O)c4-c4cc3ccc4O)[C@H](O)c3ccc(c(Cl)c3)Oc3cc2cc(c3O[C@@H]2O[C@H](CO)[C@@H](O)[C@H](O)[C@H]2O[C@H]2C[C@](C)(N)[C@H](O)[C@H](C)O2)Oc2ccc(cc2Cl)[C@H]1O | 128 (≈ 76.9 µM) | 1 (≈ 0.601 µM) | 2 | 4 (≈ 2.4 µM) | 8 | 128 (≈ 76.9 µM) | 16 (≈ 9.62 µM) | 8 | 8 | 8 (≈ 4.81 µM) | 8 | 32 | 0.0625 (≈ 0.0376 µM) | 8 (≈ 4.81 µM) | ≤ 0.0625 | 4 (≈ 2.4 µM) | 4 (≈ 2.4 µM) | Non-Toxic | Toxic
